Assay results reported in article PMC6917776, “Discovery of a chemical probe for PRDM9” (Nature Communications, 2019).
Read-outs that look alike come from different tables or passages of the source.

Test: CelltiterGlo viability cell assay
Type: cell-based
Details: human
How it was run: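 Seed cells (e.g. MDA-MB-436 at 10000/well), add compound across 0.01 μM–30 μM, incubate 3 or 6 days, then read proliferation with CelltiterGlo. Normalize to DMSO.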

[1] = HCC1143 breast cancer cells, HCC1143, 6 day, read-out: viability Replicate 3
[2] = HCC1143 breast cancer cells, HCC1143, 6 day, read-out: viability Average
[3] = HCC1143 breast cancer cells, HCC1143, 6 day, read-out: viability Replicate 1
[4] = HCC1143 breast cancer cells, HCC1143, 6 day, read-out: viability Replicate 2
[5] = HCC1806 breast cancer cells, HCC1806, 3 day, read-out: viability Average
[6] = HCC1806 breast cancer cells, HCC1806, 3 day, read-out: viability Replicate 1
[7] = HCC1806 breast cancer cells, HCC1806, 3 day, read-out: viability Replicate 2
[8] = HCC1806 breast cancer cells, HCC1806, 3 day, read-out: viability Replicate 3
[9] = HCC1806 breast cancer cells, HCC1806, 6 day, read-out: viability Average
[10] = HCC1806 breast cancer cells, HCC1806, 6 day, read-out: viability Replicate 1
[11] = HCC1806 breast cancer cells, HCC1806, 6 day, read-out: viability Replicate 2
[12] = HCC1806 breast cancer cells, HCC1806, 6 day, read-out: viability Replicate 3
[13] = HCC1806 cells, HCC1806, 3 day, read-out: viability Average
[14] = HCC1806 cells, HCC1806, 3 day, read-out: viability Replicate 1
[15] = HCC1806 cells, HCC1806, 3 day, read-out: viability Replicate 2
[16] = HCC1806 cells, HCC1806, 3 day, read-out: viability Replicate 3

COc1cc(OC)cc(-c2noc(N3CCN(C)C4(CCN(c5ccnc(C)c5)CC4)C3)n2)c1 [MRK-740]
viability at 6 day, 0.03 µM [1]: 104% | viability at 6 day, 0.1 µM [2]: 105% | viability at 6 day, 0.1 µM [3]: 103% | viability at 6 day, 0.1 µM [4]: 102% | viability at 6 day, 0.1 µM [1]: 111% | viability at 6 day, 0.3 µM [2]: 110% | viability at 6 day, 0.3 µM [3]: 109% | viability at 6 day, 0.3 µM [4]: 111% | viability at 6 day, 0.3 µM [1]: 111% | viability at 6 day, 1 µM [2]: 112% | viability at 6 day, 1 µM [3]: 114% | viability at 6 day, 1 µM [4]: 108% | viability at 6 day, 1 µM [1]: 113% | viability at 6 day, 3 µM [2]: 108% | viability at 6 day, 3 µM [3]: 106% | viability at 6 day, 3 µM [4]: 109% | viability at 6 day, 3 µM [1]: 110% | viability at 6 day, 9.5 µM [2]: 79.4% | viability at 6 day, 9.5 µM [3]: 79.5% | viability at 6 day, 9.5 µM [4]: 78.6% | viability at 6 day, 9.5 µM [1]: 80.2% | viability at 6 day, 30 µM [2]: 18.9% | viability at 6 day, 30 µM [3]: 20.9% | viability at 6 day, 30 µM [4]: 18.4% | viability at 6 day, 30 µM [1]: 17.3% | viability at 3 day, 0.1 µM (HCC1143 cells, HCC1143, 3 day, read-out: viability Average): 93.6% | viability at 3 day, 0.1 µM (HCC1143 cells, HCC1143, 3 day, read-out: viability Replicate 1): 95.6% | viability at 3 day, 0.1 µM (HCC1143 cells, HCC1143, 3 day, read-out: viability Replicate 2): 90.7% | viability at 3 day, 0.1 µM (HCC1143 cells, HCC1143, 3 day, read-out: viability Replicate 3): 94.6% | viability at 3 day, 0.01 µM [5]: 107% | viability at 3 day, 0.01 µM [6]: 103% | viability at 3 day, 0.01 µM [7]: 110% | viability at 3 day, 0.01 µM [8]: 107% | viability at 3 day, 0.03 µM [5]: 102% | viability at 3 day, 0.03 µM [6]: 99.9% | viability at 3 day, 0.03 µM [7]: 101% | viability at 3 day, 0.03 µM [8]: 104% | viability at 3 day, 1 µM [5]: 103% | viability at 3 day, 1 µM [6]: 104% | viability at 3 day, 1 µM [7]: 111% | viability at 3 day, 1 µM [8]: 94.5% | viability at 3 day, 3 µM [5]: 89.8% | viability at 3 day, 3 µM [6]: 92.2% | viability at 3 day, 3 µM [7]: 107% | viability at 3 day, 3 µM [8]: 70.5% | viability at 3 day, 9.5 µM [5]: 37.6% | viability at 3 day, 9.5 µM [6]: 40.7% | viability at 3 day, 9.5 µM [7]: 51.7% | viability at 3 day, 9.5 µM [8]: 20.5% | viability at 3 day, 30 µM [5]: 11.6% | viability at 3 day, 30 µM [6]: 13.2% | viability at 3 day, 30 µM [7]: 14.9% | viability at 3 day, 30 µM [8]: 6.61% | viability at 6 day, 0.01 µM [9]: 102% | viability at 6 day, 0.01 µM [10]: 107% | viability at 6 day, 0.01 µM [11]: 100% | viability at 6 day, 0.01 µM [12]: 99.6% | viability at 6 day, 0.03 µM [9]: 106% | viability at 6 day, 0.03 µM [10]: 111% | viability at 6 day, 0.03 µM [11]: 101% | viability at 6 day, 0.03 µM [12]: 106% | viability at 6 day, 0.1 µM [9]: 106% | viability at 6 day, 0.1 µM [10]: 107% | viability at 6 day, 0.1 µM [11]: 106% | viability at 6 day, 0.1 µM [12]: 106% | viability at 6 day, 0.3 µM [9]: 109% | viability at 6 day, 0.3 µM [10]: 113% | viability at 6 day, 0.3 µM [11]: 106% | viability at 6 day, 0.3 µM [12]: 108% | viability at 6 day, 1 µM [9]: 103% | viability at 6 day, 1 µM [10]: 102% | viability at 6 day, 1 µM [11]: 101% | viability at 6 day, 1 µM [12]: 107% | viability at 6 day, 3 µM [9]: 63.9% | viability at 6 day, 3 µM [10]: 63.2% | viability at 6 day, 3 µM [11]: 58.6% | viability at 6 day, 3 µM [12]: 69.8% | viability at 6 day, 9.5 µM [9]: 24.9% | viability at 6 day, 9.5 µM [10]: 23.5% | viability at 6 day, 9.5 µM [11]: 25% | viability at 6 day, 9.5 µM [12]: 26.3% | viability at 6 day, 30 µM [9]: 4.91% | viability at 6 day, 30 µM [10]: 5.1% | viability at 6 day, 30 µM [11]: 5.11% | viability at 6 day, 30 µM [12]: 4.53% | viability at 3 day, 0.1 µM [13]: 110% | viability at 3 day, 0.1 µM [14]: 122% | viability at 3 day, 0.1 µM [15]: 110% | viability at 3 day, 0.1 µM [16]: 97.6% | viability at 3 day, 0.3 µM [13]: 106% | viability at 3 day, 0.3 µM [14]: 109% | viability at 3 day, 0.3 µM [15]: 108% | viability at 3 day, 0.3 µM [16]: 101% | viability at 3 day, 0.01 µM (MDA-MB-436 breast cancer cells, MDA MB436, 3 day, read-out: viability Average): 104% | viability at 3 day, 0.01 µM (MDA-MB-436 breast cancer cells, MDA MB436, 3 day, read-out: viability Replicate 1): 123%
